Assay results: US4416874A, “Injectable compositions of BBM-928A” (Bristol-Myers Company, priority 1982, dated 1983)
Converted amounts (≈) assume the structure as drawn. Read-outs that look alike come from different tables or passages of the source.

Legend:
[1] = chloroform and methylene chloride; cited from earlier work
[2] = Solubility in solvents and pharmaceutical vehicles; format: physicochemical
Procedure: Is thus evident that due to the hydrolytic sensitivity and insolubility of BBM-928A that a formidable pharmaceutical formulation problem is presented for the intravenous use thereof.
The disodium salt of BBM-928A has been prepared by dissolving BBM-928A in aqueous sodium hydroxide at pH 10.5, washing with chloroform, and lyophilizing the aqueous solution. Its solubility in water is 0.5 mg/ml. In the dry state disodium BBM-928A gradually decomposes to BBM-928B and BBM-928C at higher temperatures. The following Table exemplifies this:
Limited solubility in the following solvents was observed.
(§1) The preferred composition of the present invention employs trisodium orthophosphate as the base for solubilization of BBM-928A. Solutions having concentrations of BBM-928A of from 1 to 5 mg per milliliter are readily prepared when 0.65 parts by weight of trisodium orthophosphate per part by weight of BBM-928A are employed. Such solutions have a pH within the range of 11.0 to 11.5. If an amount of the base is employed which is insufficient to provide a pH value of pH 11.0 the desired level of solubilization of the BBM-928A is not achieved. At pH values in excess of 11.5 decomposition through hydrolysis of the BBM-928A becomes so extensive as to result in loss of utility of the solutions. […] Such solutions should not be kept for longer periods but should be prepared extemporaneously prior to use. Conventional aseptic techniques conforming to the criteria of both good laboratory practices and good manufacturing practices should be employed in preparing the compositions of the present invention.

[3] = Stability of intravenous solutions at pH 11.0 to 11.5 (high performance liquid chromatography); format: physicochemical; conditions: intravenous solution solubilized by trisodium phosphate
Procedure: as §1, with “Conventional aseptic techniques conforming to the criteria of both good laboratory practices and good manufacturing practices should be employed in preparing the compositions of the present invention.” left out
The resulting bulk powder is then filled into glass vials at the rate of 16.5 mg. per vial (10 mg. BBM-928A), and the vials sealed by a proper closure to maintain the anhydrous sterile condition. […] Each vial is constituted for intravenous injection with the desired quantity of sterile water for injection in an amount of 2 ml. or more per vial (conc. up to 5 mg/ml. and preferably from 1 to 5 mg/ml. of BBM-928A). […]

COc1ccc2nc(C(=O)N[C@@H]3COC(=O)[C@H](C(C)(C)O)N(C)C(=O)CN(C)C(=O)CNC(=O)[C@@H]4[C@@H](OC(C)=O)CC=NN4C(=O)[C@H](NC(=O)c4nc5ccc(OC)cc5cc4O)COC(=O)[C@H](C(C)(C)O)N(C)C(=O)CN(C)C(=O)CNC(=O)[C@@H]4[C@@H](OC(C)=O)CC=NN4C3=O)c(O)cc2c1 [BBM-928A]
solubility [1]: readily soluble | solubility ([2]; Aqueous L-arginine 10%, yellow solution with a slight haze): 1000 µg/mL (≈ 701 µM) | solubility ([2]; Ethyl lactate, slight haze): about 1 mg/ml | solubility ([2]; Ethyl levulinate, standing in contact with the solvent overnight): 500 µg/mL (≈ 350 µM) | solubility ([2]; Lactic acid U.S.P.): 1000 µg/mL (≈ 701 µM) | solubility in 22 commonly employed pharmaceutical vehicles ([2]; poloxamer polyols, benzyl alcohol, ethanol, fixed oils, propylene glycol, polyethylene glycol 400, urea, povidone, nicotinamide, dextrose solutions etc.): virtually insoluble | period of sufficient stability for use following preparation [3]: up to 4 hours
